Usually Kd stands for the equilibrium constant for the complex coming apart. Lower therefore signals a tighter complex. For orientation: IC50 means the midpoint of a concentration-inhibition curve.

Assay [1] deals with Glyceraldehyde-3-phosphate dehydrogenase (Homo sapiens, UniProt P04406). The experiment in a line: Binding affinity to GAPDH in human erythrocytes. In kind it is cell-based.
Assay [2] deals with Glyceraldehyde-3-phosphate dehydrogenase (Oryctolagus cuniculus, UniProt P46406). The experiment in a line: Binding affinity to GAPDH in rabbit muscle.
Glyceraldehyde-3-phosphate dehydrogenase (Oryctolagus cuniculus, UniProt P46406), sequence (P46406 whole entry): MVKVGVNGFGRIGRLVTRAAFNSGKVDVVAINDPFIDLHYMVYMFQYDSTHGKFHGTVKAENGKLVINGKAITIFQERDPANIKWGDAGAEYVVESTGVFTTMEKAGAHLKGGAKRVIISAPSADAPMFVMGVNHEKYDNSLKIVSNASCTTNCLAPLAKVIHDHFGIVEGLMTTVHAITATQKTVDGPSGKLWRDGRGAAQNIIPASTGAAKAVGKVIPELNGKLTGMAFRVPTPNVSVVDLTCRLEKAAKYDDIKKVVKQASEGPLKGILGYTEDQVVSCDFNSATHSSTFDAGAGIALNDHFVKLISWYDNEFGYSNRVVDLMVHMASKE

Glyceraldehyde-3-phosphate dehydrogenase (Homo sapiens, UniProt P04406), sequence (P04406 whole entry): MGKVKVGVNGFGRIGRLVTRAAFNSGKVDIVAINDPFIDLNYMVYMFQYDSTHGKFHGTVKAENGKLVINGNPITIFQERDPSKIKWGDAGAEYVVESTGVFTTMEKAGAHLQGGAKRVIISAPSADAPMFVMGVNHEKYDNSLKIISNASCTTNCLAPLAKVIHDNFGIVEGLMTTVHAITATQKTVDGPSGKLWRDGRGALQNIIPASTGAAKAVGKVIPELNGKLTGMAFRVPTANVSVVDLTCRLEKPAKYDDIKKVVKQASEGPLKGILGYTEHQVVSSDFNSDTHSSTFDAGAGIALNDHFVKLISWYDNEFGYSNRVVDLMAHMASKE

With `C=CC(C)(C)c1[nH]c2ccccc2c1C1=C(O)C(O)=C(c2c[nH]c3c(CC=C(C)C)cccc23)C(=O)C1=O`, the Kd in assay [1] came out at 7.2 µM. In addition, the IC50 in assay [2] is 15 µM.
`CC(C)=CCc1cccc2c(C3=C(O)C(=O)C(c4c(C)[nH]c5ccc(NC(=O)CCCCCNC(=O)CCCCC6SCC7NC(=O)NC76)cc45)=C(O)C3=O)c[nH]c12` (stereo not drawn) registered a Kd in assay [1] of 7.5 µM.

The values above are taken from ChEMBL document CHEMBL1146212, “Glyceraldehyde 3-phosphate dehydrogenase is a cellular target of the insulin mimic demethylasterriquinone B1” (J Med Chem, 2007).
